Reference: PMC6150172, “Synthesis of Oxadiazole-Thiadiazole Hybrids and Their Anticandidal Activity” (Molecules : A Journal of Synthetic Chemistry and Natural …, 2017)
Converted amounts (≈) assume the structure as drawn.

Experiments:
[1] = test system: C. albicans (ATCC 24433); test: Antifungal broth microdilution assay (EUCAST EDef 7.1), C. albicans; type: cell-based; details: Candida albicans, ATCC24433, read-out: Minimum inhibitory concentration (MIC50)
Experimental: (§1) The anticandidal effect of compounds 6a–6s were screened in accord with the EUCAST definitive (EDef 7.1) method. Ketoconazole was employed as a reference drug. The in vitro growth inhibitory activity of the compounds were tested against C. albicans (ATCC 24433), C. glabrata (ATCC 90030), C. krusei (ATCC 6258) and C. parapsilosis (ATCC 22019). The results were obtained as MIC values and MIC readings were accomplished twice for each chemical agent. After incubating overnight at 37 °C, the fungal strains were sustained in Roswell Park Memorial Institute (RPMI) medium.
(§2) Adjustment of the inoculum density to a 0.5 McFarland turbidity standard was carried out by using a spectrophotometer. The resulting inoculum suspension contained 0.5 × 10^5–2.5 × 10^5 cfu/mL for fungi. The two-fold serial dilutions technique were applied and the test was carried out in Mueller–Hinton broth and RPMI at pH7 and the test was performed for medium at pH7. The last well on the microplates containing only inoculated broth and the last well with no growth of microorganism represent controls and the MIC50 in μg/mL, respectively. DMSO was used as solvent. Further dilutions of the compounds and standard drugs in the RPMI medium were prepared in the required quantities at contcentrations of 800, 400, 200, 100, 50, 25, 12.5, 6.25, 3.125, 1.5625 and 0.78 µg/mL. After a 24 h incubation of the completed plates, resazurin (20 µg/mL) was added into each well in order to observe the fungal growth. […] Each experiment in antifungal assay was performed twice.

[2] = test system: four Candida species; test: Antifungal broth microdilution assay, four Candida species taken together; type: cell-based; details: range over four Candida strains
Experimental: as §1, §2

[3] = test system: C. parapsilosis (ATCC 22019); test: Antifungal broth microdilution assay (EUCAST EDef 7.1), C. parapsilosis; type: cell-based; details: Lodderomyces parapsilosis, ATCC22019; C. parapsilopsis; read-out: Minimum inhibitory concentration (MIC50)
Experimental: as §1, §2

[4] = MTT cytotoxicity test; type: cell-based; details: mouse, NIH/3T3 mouse embryonic fibroblast cells, NIH/3T3 cell line, read-out: IC50 (cytotoxic activity)
Experimental: The MTT assay was carried out to determine the cytotoxicity of the synthesized compounds as previously reported in [21]. NIH/3T3 mouse embryonic fibroblast cells (ATCC® CRL-1658™, London, UK) were incubated according to the supplier’s references and seeded at 1 × 10^4 cells into each well of 96-well plates. After this process, cells were treated with the compounds at concentrations ranging from 800 µg/mL to 0.78 µg/mL. By means of the following formula, percent inhibition was evaluated for each concentration.

[5] = test system: C. glabrata (ATCC 90030); test: Antifungal broth microdilution assay (EUCAST EDef 7.1), C. glabrata; type: cell-based; details: Nakaseomyces glabratus, ATCC90030, read-out: Minimum inhibitory concentration (MIC50)
Experimental: as §1, §2

[6] = test system: ergosterol biosynthesis in C. krusei; test: Ergosterol level quantification by LC-MS-MS in C. krusei; type: cell-based; details: Pichia kudriavzevii, mean ± SD
Experimental: The ergosterol level was determined using the method described by Breivik and Owades with adjustments according to [2]. C. krusei was inoculated with Sabouraud dextrose broth (Difco) supplemented with compounds 6e, 6k, 6r and the positive control, ketoconazole. The cultures were incubated, and the stationary-phase cells were harvested. After the addition of 25% alcoholic potassium hydroxide solution, cell suspensions were separated and incubated. Sterols were extracted by sterile distilled water and chloroform, and then the extract was injected into the LC-MS-MS system (Shimadzu LCMS 8040, Kyoto, Japan). The ergosterol quantity in the negative control samples was considered as 100%. All concentrations were analysed in quadruplicate, and the results were presented as mean ± standard deviation (SD).

[7] = test system: C. krusei (ATCC 6258); test: Antifungal broth microdilution assay (EUCAST EDef 7.1), C. krusei; type: cell-based; details: Pichia kudriavzevii, ATCC6258, read-out: Minimum inhibitory concentration (MIC50)
Experimental: as §1, §2

melting point: 149 °C
MIC50 [1]: 1.56 µg/mL (≈ 2.99 µM)
minimum inhibitory concentration (MIC), range over all tested fungi [2]: 0.78 to 3.12 µg/mL
MIC50 [3]: 1.56 µg/mL (≈ 2.99 µM)
MIC50 [5]: 1.56 µg/mL (≈ 2.99 µM)
MIC50 [7]: 1.56 µg/mL (≈ 2.99 µM)
Structure (SMILES): O=C(CSc1nnc(CCSc2nnc(NC3CCCCC3)s2)o1)Nc1ccc([N+](=O)[O-])cc1 [Compound 6k, 2-[[5-[2-[[5-(Cyclohexylamino)-1,3,4-thiadiazol-2-yl]thio]ethyl]-1,3,4-oxadiazol-2-yl]thio]-N-(4-nitrophenyl)acetamide]
IC50 [4]: > 500 µg/mL
inhibition at 0.78 µg/mL ([6]; 0.78 µg/mL): 58.7 ± 2.41%
inhibition at 1.56 µg/mL ([6]; 1.56 µg/mL): 74.7 ± 3.26%
inhibition at 3.12 µg/mL ([6]; 3.12 µg/mL): 81.3 ± 4.19%
